Assay results published in ChEMBL document CHEMBL5352506, “The Zinc-Binding Group Effect: Lessons from Non-Hydroxamic Acid Vorinostat Analogs” (J Med Chem, 2023).

Tests used:
[1] = biological target: T1, Protein deacetylase HDAC6 (Homo sapiens, UniProt Q9UBN7); experiment: Inhibition of human recombinant HDAC6 using ArgHisLysLys(Ac) as substrate by fluorescence based analysis
T1 sequence (Q9UBN7 whole entry): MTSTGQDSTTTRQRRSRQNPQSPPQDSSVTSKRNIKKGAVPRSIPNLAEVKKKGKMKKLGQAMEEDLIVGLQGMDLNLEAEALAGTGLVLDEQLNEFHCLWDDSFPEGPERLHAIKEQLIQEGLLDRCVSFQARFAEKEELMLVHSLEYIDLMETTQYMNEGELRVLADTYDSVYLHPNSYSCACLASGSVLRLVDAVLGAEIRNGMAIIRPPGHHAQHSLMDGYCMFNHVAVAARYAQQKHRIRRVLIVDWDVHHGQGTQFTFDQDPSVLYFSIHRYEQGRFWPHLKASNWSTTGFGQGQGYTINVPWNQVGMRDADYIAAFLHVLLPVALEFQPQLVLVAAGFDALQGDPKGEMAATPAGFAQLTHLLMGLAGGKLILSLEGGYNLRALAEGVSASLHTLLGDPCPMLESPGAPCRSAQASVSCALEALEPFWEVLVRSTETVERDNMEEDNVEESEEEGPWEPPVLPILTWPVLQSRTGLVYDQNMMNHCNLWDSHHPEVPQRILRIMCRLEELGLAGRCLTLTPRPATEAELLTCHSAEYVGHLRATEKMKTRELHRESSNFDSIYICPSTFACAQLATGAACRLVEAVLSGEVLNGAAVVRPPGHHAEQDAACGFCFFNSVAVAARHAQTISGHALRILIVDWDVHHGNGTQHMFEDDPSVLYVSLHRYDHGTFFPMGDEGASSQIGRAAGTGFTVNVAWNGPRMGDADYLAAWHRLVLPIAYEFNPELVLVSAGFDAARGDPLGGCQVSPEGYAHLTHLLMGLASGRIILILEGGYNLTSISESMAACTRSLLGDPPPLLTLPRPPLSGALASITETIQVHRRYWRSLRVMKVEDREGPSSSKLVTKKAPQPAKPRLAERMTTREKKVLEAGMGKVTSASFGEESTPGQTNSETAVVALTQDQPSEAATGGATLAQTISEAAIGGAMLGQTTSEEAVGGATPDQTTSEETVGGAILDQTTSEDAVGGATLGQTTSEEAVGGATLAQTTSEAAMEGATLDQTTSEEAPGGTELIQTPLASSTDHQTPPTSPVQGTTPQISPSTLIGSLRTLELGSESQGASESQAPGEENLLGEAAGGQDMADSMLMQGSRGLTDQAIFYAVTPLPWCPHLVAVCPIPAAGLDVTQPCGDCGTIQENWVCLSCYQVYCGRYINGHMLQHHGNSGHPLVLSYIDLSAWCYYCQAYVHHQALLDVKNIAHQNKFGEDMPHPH

[2] = biological target: T2, Histone deacetylase 7 (Homo sapiens, UniProt Q8WUI4); experiment: Inhibition of human recombinant HDAC7 using ArgHisLysLys(Ac) as substrate by fluorescence based analysis
T2 sequence (Q8WUI4 whole entry): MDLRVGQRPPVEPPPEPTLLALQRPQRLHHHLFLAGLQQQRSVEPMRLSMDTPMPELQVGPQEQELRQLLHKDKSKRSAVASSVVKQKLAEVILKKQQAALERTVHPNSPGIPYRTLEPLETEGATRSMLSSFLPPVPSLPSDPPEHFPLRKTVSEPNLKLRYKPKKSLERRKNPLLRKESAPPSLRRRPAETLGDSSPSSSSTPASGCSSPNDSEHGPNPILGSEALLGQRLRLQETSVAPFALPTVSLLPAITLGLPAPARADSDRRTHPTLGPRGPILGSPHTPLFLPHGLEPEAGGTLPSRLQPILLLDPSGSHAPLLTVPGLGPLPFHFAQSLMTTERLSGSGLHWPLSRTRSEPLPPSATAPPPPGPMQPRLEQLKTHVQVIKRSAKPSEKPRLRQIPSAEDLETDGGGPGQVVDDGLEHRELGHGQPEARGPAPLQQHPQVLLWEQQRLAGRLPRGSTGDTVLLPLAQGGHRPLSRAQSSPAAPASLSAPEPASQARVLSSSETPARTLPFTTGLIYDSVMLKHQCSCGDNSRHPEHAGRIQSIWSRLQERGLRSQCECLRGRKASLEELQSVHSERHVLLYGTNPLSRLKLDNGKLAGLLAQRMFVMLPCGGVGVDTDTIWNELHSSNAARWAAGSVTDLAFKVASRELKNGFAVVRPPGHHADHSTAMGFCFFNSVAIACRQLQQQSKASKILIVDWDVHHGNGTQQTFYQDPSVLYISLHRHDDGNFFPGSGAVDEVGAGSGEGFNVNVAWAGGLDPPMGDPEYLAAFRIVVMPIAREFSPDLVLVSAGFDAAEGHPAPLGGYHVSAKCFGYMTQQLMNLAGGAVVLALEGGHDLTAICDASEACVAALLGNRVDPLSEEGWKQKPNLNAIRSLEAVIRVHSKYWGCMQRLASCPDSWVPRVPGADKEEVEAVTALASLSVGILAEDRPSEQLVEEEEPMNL

[3] = biological target: Histone deacetylase 2 (Homo sapiens, UniProt Q92769); experiment: Inhibition of human recombinant HDAC2 using ArgHisLysLys(Ac) as substrate by fluorescence based analysis
[4] = biological target: Histone deacetylase 4 (Homo sapiens, UniProt P56524); experiment: Inhibition of human recombinant HDAC4 using ArgHisLysLys(Ac) as substrate by fluorescence based analysis
[5] = biological target: Histone deacetylase 1 (Homo sapiens, UniProt Q13547); experiment: Inhibition of human recombinant HDAC1 using ArgHisLysLys(Ac) as substrate by fluorescence based analysis
[6] = biological target: Histone deacetylase 9 (Homo sapiens, UniProt Q9UKV0); experiment: Inhibition of human recombinant HDAC9 using ArgHisLysLys(Ac) as substrate by fluorescence based analysis
[7] = biological target: Histone deacetylase 5 (Homo sapiens, UniProt Q9UQL6); experiment: Inhibition of human recombinant HDAC5 using ArgHisLysLys(Ac) as substrate by fluorescence based analysis
Sequence of Histone deacetylase 5 (Q9UQL6 whole entry): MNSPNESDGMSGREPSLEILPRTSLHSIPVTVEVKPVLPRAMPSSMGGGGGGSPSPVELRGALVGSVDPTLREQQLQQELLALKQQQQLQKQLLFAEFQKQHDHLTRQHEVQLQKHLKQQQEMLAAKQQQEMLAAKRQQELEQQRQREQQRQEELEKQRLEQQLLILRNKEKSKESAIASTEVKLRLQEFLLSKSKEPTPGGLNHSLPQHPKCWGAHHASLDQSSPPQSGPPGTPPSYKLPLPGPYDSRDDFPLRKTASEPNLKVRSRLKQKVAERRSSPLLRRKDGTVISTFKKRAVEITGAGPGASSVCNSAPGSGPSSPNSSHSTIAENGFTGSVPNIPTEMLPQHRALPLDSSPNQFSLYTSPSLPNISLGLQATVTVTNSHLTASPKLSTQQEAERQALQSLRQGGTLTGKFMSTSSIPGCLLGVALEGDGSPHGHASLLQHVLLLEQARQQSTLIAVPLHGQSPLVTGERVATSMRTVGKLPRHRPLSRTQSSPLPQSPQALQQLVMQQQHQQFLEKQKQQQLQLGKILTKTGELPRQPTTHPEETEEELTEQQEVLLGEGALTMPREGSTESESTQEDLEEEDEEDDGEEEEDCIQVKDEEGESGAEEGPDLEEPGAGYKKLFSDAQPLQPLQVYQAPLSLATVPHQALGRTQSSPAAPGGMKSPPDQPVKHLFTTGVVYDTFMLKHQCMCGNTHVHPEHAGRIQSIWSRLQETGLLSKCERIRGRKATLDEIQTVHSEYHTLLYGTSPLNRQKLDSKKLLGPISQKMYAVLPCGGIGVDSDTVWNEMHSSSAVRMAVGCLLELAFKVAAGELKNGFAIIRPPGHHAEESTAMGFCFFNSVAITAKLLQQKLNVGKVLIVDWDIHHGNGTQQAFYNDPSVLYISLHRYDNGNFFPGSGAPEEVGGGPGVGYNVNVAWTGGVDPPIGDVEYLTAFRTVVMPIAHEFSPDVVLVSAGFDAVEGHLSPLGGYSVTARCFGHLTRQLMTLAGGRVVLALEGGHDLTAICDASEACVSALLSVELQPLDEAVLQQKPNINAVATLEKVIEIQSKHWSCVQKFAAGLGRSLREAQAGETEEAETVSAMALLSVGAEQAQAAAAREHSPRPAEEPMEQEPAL

Sequence of Histone deacetylase 2 (Q92769 whole entry): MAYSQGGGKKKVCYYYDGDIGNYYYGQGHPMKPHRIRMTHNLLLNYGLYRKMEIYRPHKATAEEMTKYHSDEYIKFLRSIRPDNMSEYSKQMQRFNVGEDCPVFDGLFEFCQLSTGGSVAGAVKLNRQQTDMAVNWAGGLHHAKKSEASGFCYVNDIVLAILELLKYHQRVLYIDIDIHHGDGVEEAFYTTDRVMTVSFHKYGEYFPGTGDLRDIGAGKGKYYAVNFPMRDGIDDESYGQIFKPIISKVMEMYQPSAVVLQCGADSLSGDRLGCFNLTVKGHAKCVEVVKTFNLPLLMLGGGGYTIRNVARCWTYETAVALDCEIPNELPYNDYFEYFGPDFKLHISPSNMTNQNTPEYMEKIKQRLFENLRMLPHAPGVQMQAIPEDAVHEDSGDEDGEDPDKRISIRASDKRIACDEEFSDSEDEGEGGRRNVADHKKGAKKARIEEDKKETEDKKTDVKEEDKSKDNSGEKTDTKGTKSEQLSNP
Sequence of Histone deacetylase 1 (Q13547 whole entry): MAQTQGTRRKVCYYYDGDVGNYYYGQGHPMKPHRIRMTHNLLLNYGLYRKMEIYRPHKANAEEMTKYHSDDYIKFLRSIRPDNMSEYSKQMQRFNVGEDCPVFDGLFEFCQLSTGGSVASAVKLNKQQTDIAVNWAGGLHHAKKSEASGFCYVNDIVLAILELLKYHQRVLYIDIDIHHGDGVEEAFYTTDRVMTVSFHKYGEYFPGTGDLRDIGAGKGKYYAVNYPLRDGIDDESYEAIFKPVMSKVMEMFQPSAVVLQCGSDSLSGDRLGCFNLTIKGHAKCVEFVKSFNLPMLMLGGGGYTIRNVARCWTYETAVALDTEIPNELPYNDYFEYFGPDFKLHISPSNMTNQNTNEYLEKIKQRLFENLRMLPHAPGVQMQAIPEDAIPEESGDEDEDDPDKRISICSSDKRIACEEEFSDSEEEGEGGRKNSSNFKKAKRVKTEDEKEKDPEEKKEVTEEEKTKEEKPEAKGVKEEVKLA
Sequence of Histone deacetylase 4 (P56524 whole entry): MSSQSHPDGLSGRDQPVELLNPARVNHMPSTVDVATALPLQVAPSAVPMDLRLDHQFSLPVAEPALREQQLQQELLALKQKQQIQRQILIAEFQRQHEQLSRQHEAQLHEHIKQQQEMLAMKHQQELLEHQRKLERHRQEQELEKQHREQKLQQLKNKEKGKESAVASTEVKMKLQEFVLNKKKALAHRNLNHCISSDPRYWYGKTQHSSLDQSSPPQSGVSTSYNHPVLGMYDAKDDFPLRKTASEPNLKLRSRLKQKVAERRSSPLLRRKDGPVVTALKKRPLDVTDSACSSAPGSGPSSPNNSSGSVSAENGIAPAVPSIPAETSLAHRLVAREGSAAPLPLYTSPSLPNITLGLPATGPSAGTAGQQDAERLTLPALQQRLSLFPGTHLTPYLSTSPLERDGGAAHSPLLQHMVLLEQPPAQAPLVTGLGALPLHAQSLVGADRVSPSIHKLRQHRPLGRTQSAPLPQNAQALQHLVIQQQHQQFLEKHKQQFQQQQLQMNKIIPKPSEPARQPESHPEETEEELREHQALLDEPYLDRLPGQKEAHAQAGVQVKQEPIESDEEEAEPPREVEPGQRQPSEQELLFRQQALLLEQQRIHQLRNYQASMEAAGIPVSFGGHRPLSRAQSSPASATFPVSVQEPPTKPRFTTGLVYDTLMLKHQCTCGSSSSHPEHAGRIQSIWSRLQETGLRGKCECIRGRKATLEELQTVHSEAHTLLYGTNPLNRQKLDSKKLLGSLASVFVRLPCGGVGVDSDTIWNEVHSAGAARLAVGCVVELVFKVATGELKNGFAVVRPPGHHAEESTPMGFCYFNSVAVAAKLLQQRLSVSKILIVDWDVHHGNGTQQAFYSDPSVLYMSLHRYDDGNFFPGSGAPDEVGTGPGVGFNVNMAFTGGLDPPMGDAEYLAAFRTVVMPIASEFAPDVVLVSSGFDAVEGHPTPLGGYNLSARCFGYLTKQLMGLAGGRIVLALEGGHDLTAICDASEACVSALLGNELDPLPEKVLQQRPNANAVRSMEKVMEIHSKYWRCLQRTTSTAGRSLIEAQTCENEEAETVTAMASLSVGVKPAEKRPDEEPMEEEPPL
Sequence of Histone deacetylase 9 (Q9UKV0 whole entry): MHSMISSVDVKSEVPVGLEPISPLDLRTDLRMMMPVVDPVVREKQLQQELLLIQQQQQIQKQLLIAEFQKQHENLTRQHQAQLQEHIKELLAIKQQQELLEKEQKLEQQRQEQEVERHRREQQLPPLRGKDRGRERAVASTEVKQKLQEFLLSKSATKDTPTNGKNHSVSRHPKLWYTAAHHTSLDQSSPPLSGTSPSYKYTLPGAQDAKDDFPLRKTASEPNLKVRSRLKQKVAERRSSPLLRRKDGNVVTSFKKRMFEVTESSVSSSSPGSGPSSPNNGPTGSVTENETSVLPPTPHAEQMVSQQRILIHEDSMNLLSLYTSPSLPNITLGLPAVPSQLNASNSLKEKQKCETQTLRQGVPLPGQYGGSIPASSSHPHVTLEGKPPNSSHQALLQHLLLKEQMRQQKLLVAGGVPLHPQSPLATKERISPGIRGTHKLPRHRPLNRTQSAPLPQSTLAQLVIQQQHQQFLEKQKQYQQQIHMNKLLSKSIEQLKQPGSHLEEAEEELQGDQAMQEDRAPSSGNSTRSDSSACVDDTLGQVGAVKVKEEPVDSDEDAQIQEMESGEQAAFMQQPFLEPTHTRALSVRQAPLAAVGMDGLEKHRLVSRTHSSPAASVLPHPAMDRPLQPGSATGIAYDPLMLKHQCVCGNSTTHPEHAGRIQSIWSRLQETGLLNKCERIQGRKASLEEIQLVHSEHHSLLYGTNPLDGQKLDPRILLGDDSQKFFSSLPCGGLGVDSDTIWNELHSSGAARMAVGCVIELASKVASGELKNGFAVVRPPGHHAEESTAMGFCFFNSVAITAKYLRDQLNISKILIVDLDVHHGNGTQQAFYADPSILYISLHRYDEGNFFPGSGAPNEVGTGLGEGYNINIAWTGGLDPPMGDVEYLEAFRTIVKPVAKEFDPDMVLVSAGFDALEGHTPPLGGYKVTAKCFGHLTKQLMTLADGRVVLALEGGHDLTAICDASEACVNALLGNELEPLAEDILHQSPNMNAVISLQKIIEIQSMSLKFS

Structure (SMILES): Nc1ccccc1N1CC(CCCCCC(=O)Nc2ccccc2)C1=O (stereo not drawn)
- IC50 [1]: > 1000 µM
- IC50 [2]: > 1000 µM
- IC50 [3]: > 1000 µM
- IC50 [4]: > 1000 µM
- IC50 [5]: > 1000 µM
- IC50 [6]: > 1000 µM
- IC50 [7]: > 1000 µM

Structure (SMILES): O=C(CCCCC[C@@H]1CN(O)C1=O)Nc1ccccc1
- IC50 [1]: 132 µM
- IC50 [2]: > 1000 µM
- IC50 [3]: > 1000 µM
- IC50 [4]: > 1000 µM
- IC50 [5]: > 1000 µM
- IC50 [6]: > 1000 µM
- IC50 [7]: > 1000 µM

Structure (SMILES): O=C(CCCCCC1CNC1=O)Nc1ccccc1 (stereo not drawn)
- IC50 [1]: 74.5 µM
- IC50 [2]: > 1000 µM
- IC50 [3]: > 1000 µM
- IC50 [4]: > 1000 µM
- IC50 [5]: > 1000 µM
- IC50 [6]: > 1000 µM
- IC50 [7]: > 1000 µM

Structure (SMILES): O=C(CCCCC[C@H]1CN(O)C1=O)Nc1ccccc1
- IC50 [1]: 174 µM
- IC50 [2]: > 1000 µM
- IC50 [3]: > 1000 µM
- IC50 [4]: > 1000 µM
- IC50 [5]: > 1000 µM
- IC50 [6]: > 1000 µM
- IC50 [7]: > 1000 µM
